Assay results published in PubChem BioAssay AID2060509 (Molecular Pharmacology Branch, DTP, NCI, 2025).
pIC50: −log10 of the molar value.

Test system: 485176-168-R4-J1-PDC spheroids with HUVEC/MSC, viability
Assay: Anticancer human tumor 485176-168-R4-J1-PDC patient-derived pancreatic adenocarcinoma cell line growth inhibition [GQUAD]
Conditions: for pIC50: curve of first compound; for viability, T/C: stronger effect = lower value
How it was run: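 Tumor cells were grown as complex spheroids with HUVEC endothelial cells and mesenchymal stem cells as stroma. G-quadruplex stabilizers were combined with targeted agents over half-log dilutions from near the clinical Cmax, or from 10 microM.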
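Also: spheroids exposed to compounds for seven days before readout.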
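For viability, T/C in this document: percent viability relative to DMSO vehicle control wells as 100%.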

## COc1ccc([C@@H](O)c2cc(-c3ncnc4cc(N5CCOCC5)ccc34)c(F)cc2Cl)nn1 + CN(C)c1ccc(Nc2c3ccc(NC(=O)CCN4CCCC4)cc3nc3cc(NC(=O)CCN4CCCC4)ccc23)cc1
Second compound 0.0316 µM
  pIC50: 5.24
Second compound 0.1 µM
  pIC50: 5.32
Second compound 0.316 µM
  pIC50: 5.32
Second compound 1 µM
  pIC50: 5.34
Second compound 3.16 µM
  pIC50: 5.39
Second compound 10 µM
  pIC50: 5.50
Second compound 0.0316 µM, first compound 0.0316 µM
  viability, T/C: 97.4%
Second compound 0.0316 µM, first compound 0.1 µM
  viability, T/C: 96.6%
Second compound 0.0316 µM, first compound 0.316 µM
  viability, T/C: 96.1%
Second compound 0.0316 µM, first compound 1 µM
  viability, T/C: 82.3%
Second compound 0.0316 µM, first compound 3.16 µM
  viability, T/C: 70.9%
Second compound 0.0316 µM, first compound 10 µM
  viability, T/C: 31.4%
Second compound 0.1 µM, first compound 0.0316 µM
  viability, T/C: 97.6%
Second compound 0.1 µM, first compound 0.1 µM
  viability, T/C: 98.4%
Second compound 0.1 µM, first compound 0.316 µM
  viability, T/C: 89.1%
Second compound 0.1 µM, first compound 1 µM
  viability, T/C: 80.5%
Second compound 0.1 µM, first compound 3.16 µM
  viability, T/C: 60.6%
Second compound 0.1 µM, first compound 10 µM
  viability, T/C: 30.7%
Second compound 0.316 µM, first compound 0.0316 µM
  viability, T/C: 87%
Second compound 0.316 µM, first compound 0.1 µM
  viability, T/C: 92.2%
Second compound 0.316 µM, first compound 0.316 µM
  viability, T/C: 109%
Second compound 0.316 µM, first compound 1 µM
  viability, T/C: 75.6%
Second compound 0.316 µM, first compound 3.16 µM
  viability, T/C: 62.9%
Second compound 0.316 µM, first compound 10 µM
  viability, T/C: 30.6%
Second compound 1 µM, first compound 0.0316 µM
  viability, T/C: 106%
Second compound 1 µM, first compound 0.1 µM
  viability, T/C: 91.8%
Second compound 1 µM, first compound 0.316 µM
  viability, T/C: 100%
Second compound 1 µM, first compound 1 µM
  viability, T/C: 84.1%
Second compound 1 µM, first compound 3.16 µM
  viability, T/C: 60.9%
Second compound 1 µM, first compound 10 µM
  viability, T/C: 27.1%
Second compound 3.16 µM, first compound 0.0316 µM
  viability, T/C: 108%
Second compound 3.16 µM, first compound 0.1 µM
  viability, T/C: 107%
Second compound 3.16 µM, first compound 0.316 µM
  viability, T/C: 81.4%
Second compound 3.16 µM, first compound 1 µM
  viability, T/C: 74.9%
Second compound 3.16 µM, first compound 3.16 µM
  viability, T/C: 57.9%
Second compound 3.16 µM, first compound 10 µM
  viability, T/C: 31.8%
Second compound 10 µM, first compound 0.0316 µM
  viability, T/C: 77.6%
Second compound 10 µM, first compound 0.1 µM
  viability, T/C: 87.5%
Second compound 10 µM, first compound 0.316 µM
  viability, T/C: 73.7%
Second compound 10 µM, first compound 1 µM
  viability, T/C: 61.9%
Second compound 10 µM, first compound 3.16 µM
  viability, T/C: 52.4%
Second compound 10 µM, first compound 10 µM
  viability, T/C: 23.8%
